# Data published in publication PMC12420824, “Discovery of a selective alpha-kinase 1 inhibitor for the rare genetic disease ROSAH syndrome” (Nature Communications, 2025).
# Columns and labels:
# Experiment in all cases: HotSpot kinase assay
# Details in all cases: read-out: % Enzyme Activity (relative to DMSO control), 10 uM
# [1] = target: CAMK2d (Homo sapiens, UniProt Q13557)
# [2] = target: DRAK1/STK17A (Homo sapiens, UniProt Q9UEE5)
# [3] = target: FGFR1 (Homo sapiens, UniProt P11362)
# Excerpt: (§1) Additionally, a 10-dose dilution series of staurosporine and other enzyme-appropriate compounds were included as positive control inhibitors.
# [4] = target: MLK3/MAP3K11 (Homo sapiens, UniProt Q16584)
# Excerpt: as §1
# [5] = target: AKT3 (Homo sapiens, UniProt Q9Y243)
# [6] = target: NEK5 (Homo sapiens, UniProt Q6P3R8)
# Excerpt: as §1
# [7] = target: ALK4/ACVR1B (Homo sapiens, UniProt P36896)
# Excerpt: as §1
# [8] = target: GCK/MAP4K2 (Homo sapiens, UniProt Q12851)
# [9] = target: TTBK1 (Homo sapiens, UniProt Q5TCY1)
# Excerpt: as §1
# [10] = target: CDK2/CYCLIN E (Homo sapiens, UniProt P24941)
# Excerpt: as §1
# [11] = target: AMPK(A2/B2/G1) (Homo sapiens, UniProt P54646)
# [12] = target: HGK/MAP4K4 (Homo sapiens, UniProt O95819)
# Excerpt: as §1
# [13] = target: ALK2/ACVR1 (Homo sapiens, UniProt Q04771)
# [14] = target: ERN1/IRE1 (Homo sapiens, UniProt O75460)
# Excerpt: as §1
# [15] = target: MRCKb/CDC42BPB (Homo sapiens, UniProt Q9Y5S2)
# [16] = target: TBK1 (Homo sapiens, UniProt Q9UHD2)
# Excerpt: as §1
# [17] = target: P38b/MAPK11 (Homo sapiens, UniProt Q15759)
# [18] = target: PIM3 (Homo sapiens, UniProt Q86V86)
# Excerpt: as §1
# [19] = target: FGR (Homo sapiens, UniProt P09769)
# Excerpt: as §1
# [20] = target: LIMK1 (Homo sapiens, UniProt P53667)
# [21] = target: SSTK/TSSK6 (Homo sapiens, UniProt Q9BXA6)
# [22] = target: STK39/STLK3 (Homo sapiens, UniProt Q9UEW8)
# Excerpt: as §1
# [23] = target: MINK/MINK1 (Homo sapiens, UniProt Q8N4C8)
# Excerpt: as §1
# [24] = target: MAK (Homo sapiens, UniProt P20794)
# Excerpt: as §1
# [25] = target: MARK3 (Homo sapiens, UniProt P27448)
# Excerpt: as §1
# [26] = target: CDK2/cyclin O (Homo sapiens, UniProt P24941)
# [27] = target: MKK6 (Homo sapiens, UniProt P52564)
# Excerpt: as §1
# [28] = target: JAK2 (Homo sapiens, UniProt O60674)
# [29] = target: ALK (Homo sapiens, UniProt Q9UM73)
# Excerpt: as §1
# [30] = target: CDK9/cyclin T1 (Homo sapiens, UniProt P50750)
# [31] = target: GRK5 (Homo sapiens, UniProt P34947)
# [32] = target: EPHA1 (Homo sapiens, UniProt P21709)
# [33] = target: WEE1 (Homo sapiens, UniProt P30291)
# Excerpt: as §1
# [34] = target: FAK/PTK2 (Homo sapiens, UniProt Q05397)
# Excerpt: as §1
# [35] = target: CLK4 (Homo sapiens, UniProt Q9HAZ1)
# Excerpt: as §1
# [36] = target: c-Src (Homo sapiens, UniProt P12931)
# [37] = target: PYK2 (Homo sapiens, UniProt Q14289)
# Excerpt: as §1
# [38] = target: PDK1/PDPK1 (Homo sapiens, UniProt O15530)
# [39] = target: GSK3a (Homo sapiens, UniProt P49840)
# Chain of EPHA1 (P21709 26-976): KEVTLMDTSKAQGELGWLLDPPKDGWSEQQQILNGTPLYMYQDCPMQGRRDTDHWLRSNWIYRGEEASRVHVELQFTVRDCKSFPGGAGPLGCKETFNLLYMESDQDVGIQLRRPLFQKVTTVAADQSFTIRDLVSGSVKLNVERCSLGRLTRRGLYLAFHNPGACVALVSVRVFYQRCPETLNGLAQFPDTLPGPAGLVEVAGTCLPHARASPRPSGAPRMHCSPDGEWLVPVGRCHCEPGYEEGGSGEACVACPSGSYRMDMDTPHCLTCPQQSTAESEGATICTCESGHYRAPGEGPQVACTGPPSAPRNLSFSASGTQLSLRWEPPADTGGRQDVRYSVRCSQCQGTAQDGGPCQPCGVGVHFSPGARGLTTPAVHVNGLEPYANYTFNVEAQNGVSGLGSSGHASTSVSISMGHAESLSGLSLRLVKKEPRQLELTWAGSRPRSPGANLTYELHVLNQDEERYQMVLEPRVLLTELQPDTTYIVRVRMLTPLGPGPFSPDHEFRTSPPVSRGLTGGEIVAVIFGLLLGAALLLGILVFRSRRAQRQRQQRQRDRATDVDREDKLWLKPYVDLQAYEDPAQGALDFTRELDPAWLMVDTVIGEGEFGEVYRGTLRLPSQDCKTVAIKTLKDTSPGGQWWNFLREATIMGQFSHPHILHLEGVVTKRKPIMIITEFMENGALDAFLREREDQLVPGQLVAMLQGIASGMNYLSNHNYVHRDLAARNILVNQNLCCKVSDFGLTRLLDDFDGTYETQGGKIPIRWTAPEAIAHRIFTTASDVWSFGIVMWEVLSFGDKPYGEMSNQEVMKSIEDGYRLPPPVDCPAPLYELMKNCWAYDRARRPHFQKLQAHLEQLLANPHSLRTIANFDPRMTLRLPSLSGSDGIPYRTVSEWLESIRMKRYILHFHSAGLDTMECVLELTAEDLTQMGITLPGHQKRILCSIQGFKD
# Chain of TTBK1 (Q5TCY1 whole entry): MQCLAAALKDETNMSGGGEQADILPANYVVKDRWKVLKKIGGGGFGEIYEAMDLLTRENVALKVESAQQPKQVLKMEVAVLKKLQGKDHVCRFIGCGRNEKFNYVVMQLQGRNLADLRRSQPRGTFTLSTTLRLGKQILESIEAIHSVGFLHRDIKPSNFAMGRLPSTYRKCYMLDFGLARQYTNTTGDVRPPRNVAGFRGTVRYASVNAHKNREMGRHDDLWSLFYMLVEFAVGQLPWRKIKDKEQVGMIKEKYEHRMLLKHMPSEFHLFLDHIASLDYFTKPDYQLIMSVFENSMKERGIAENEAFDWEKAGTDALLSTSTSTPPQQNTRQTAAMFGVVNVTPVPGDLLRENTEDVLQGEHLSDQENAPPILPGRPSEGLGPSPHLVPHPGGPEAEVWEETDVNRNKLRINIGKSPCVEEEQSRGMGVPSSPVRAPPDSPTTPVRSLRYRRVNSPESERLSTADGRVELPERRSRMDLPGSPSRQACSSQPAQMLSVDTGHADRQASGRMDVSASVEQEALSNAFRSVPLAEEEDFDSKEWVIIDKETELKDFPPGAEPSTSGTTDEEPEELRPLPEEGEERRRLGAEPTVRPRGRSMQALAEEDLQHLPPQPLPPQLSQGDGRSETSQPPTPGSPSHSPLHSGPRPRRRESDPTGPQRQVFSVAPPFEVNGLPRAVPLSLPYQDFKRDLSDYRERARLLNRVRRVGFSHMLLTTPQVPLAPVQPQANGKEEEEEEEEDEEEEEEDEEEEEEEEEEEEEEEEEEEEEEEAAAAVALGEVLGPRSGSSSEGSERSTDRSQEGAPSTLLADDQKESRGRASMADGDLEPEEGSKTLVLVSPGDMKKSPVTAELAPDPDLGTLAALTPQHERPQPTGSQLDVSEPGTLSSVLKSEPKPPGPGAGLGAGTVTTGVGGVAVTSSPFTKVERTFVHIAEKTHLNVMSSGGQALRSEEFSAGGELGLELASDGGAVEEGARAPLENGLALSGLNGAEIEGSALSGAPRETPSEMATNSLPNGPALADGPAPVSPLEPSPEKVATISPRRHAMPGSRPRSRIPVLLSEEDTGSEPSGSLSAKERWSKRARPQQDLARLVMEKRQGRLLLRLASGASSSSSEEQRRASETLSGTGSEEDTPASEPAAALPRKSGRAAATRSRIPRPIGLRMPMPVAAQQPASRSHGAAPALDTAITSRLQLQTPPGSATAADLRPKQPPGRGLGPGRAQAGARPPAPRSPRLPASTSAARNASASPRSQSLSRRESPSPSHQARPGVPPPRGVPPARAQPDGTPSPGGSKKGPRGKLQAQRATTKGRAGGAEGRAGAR
# Chain of MINK/MINK1 (Q8N4C8 whole entry): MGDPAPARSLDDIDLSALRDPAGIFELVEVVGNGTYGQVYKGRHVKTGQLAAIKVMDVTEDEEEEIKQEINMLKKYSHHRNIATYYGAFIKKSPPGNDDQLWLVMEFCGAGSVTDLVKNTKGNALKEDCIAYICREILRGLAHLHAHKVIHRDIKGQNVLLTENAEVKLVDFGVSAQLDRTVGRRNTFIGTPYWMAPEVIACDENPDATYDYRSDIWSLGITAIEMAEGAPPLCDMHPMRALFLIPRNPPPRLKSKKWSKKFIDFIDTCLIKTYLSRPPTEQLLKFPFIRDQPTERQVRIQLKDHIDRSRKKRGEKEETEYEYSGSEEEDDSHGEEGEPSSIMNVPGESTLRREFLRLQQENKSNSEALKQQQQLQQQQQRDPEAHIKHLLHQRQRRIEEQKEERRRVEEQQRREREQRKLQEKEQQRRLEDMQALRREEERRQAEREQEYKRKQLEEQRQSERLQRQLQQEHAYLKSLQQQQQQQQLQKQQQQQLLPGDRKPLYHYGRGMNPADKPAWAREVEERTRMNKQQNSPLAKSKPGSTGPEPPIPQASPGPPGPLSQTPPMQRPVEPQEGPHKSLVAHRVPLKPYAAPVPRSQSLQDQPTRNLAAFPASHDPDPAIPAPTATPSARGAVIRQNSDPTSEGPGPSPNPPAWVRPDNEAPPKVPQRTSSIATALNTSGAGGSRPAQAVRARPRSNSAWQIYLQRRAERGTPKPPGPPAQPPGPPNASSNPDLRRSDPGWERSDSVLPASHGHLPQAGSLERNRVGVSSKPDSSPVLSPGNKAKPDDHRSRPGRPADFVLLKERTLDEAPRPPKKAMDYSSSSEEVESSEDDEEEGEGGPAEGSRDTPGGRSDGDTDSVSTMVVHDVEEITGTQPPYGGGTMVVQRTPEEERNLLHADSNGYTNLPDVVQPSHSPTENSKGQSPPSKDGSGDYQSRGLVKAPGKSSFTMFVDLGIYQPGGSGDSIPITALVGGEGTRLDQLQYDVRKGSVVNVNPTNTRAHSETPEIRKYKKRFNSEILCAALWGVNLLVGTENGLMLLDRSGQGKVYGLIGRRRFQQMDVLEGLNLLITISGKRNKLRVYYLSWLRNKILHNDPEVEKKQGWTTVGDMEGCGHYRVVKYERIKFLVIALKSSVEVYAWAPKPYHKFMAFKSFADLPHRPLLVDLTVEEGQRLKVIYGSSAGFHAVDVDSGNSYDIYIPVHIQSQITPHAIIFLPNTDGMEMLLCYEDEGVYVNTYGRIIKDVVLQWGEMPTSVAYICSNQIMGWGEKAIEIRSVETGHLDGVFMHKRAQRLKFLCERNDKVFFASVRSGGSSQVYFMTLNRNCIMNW
# Chain of HGK/MAP4K4 (O95819 whole entry): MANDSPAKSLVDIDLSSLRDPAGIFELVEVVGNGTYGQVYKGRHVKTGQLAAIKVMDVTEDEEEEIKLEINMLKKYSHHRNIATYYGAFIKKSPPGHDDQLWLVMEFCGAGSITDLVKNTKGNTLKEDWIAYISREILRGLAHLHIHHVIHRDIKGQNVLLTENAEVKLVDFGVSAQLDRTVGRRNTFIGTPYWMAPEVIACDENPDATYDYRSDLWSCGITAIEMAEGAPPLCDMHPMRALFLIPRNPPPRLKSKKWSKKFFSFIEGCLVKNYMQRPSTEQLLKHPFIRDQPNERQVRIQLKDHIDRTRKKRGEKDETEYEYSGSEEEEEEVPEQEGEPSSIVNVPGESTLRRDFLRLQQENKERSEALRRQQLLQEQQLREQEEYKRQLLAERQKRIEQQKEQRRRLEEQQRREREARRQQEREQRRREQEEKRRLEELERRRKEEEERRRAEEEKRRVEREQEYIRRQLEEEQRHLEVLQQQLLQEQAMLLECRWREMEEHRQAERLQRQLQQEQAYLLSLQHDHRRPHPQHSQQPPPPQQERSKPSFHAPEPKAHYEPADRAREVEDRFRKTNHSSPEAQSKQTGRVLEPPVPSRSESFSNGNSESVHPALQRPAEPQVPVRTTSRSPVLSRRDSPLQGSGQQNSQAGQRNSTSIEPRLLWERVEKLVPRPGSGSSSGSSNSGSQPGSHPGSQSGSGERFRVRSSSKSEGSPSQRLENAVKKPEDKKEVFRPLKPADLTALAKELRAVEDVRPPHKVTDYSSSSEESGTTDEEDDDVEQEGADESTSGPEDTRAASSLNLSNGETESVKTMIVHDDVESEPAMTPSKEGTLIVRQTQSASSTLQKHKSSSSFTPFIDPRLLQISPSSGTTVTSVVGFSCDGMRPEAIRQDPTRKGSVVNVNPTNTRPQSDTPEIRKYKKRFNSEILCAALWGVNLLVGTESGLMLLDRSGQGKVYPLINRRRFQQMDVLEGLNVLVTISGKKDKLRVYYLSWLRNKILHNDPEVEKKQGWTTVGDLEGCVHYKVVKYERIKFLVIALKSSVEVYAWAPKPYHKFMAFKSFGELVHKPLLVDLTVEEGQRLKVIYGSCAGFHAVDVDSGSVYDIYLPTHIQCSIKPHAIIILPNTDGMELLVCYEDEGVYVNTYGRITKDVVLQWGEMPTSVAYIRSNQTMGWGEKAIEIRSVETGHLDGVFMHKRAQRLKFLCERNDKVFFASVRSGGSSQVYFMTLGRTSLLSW
# Chain of SSTK/TSSK6 (Q9BXA6 whole entry): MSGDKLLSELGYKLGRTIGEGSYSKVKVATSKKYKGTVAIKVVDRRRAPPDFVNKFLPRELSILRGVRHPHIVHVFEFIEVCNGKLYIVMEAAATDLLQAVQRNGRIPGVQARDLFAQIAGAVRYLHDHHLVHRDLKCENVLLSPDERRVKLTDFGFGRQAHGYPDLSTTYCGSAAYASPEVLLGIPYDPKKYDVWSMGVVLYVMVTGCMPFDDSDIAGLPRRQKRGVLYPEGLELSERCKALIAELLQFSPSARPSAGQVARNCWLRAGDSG
smiles,measurement,setting,value
C#C[C@@](C)(c1ccc(Cl)cc1)c1csc(NC(=O)c2c(F)cc(N3CCNCC3)cc2F)n1 (stereo in doubt) [DF-003],remaining activity at 10 µM,[1],7.88%
same,remaining activity at 10 µM,[2],12.7%
same,remaining activity at 10 µM,[3],68.8%
same,remaining activity at 10 µM,[4],77.8%
same,remaining activity at 10 µM,[5],83.1%
same,remaining activity at 10 µM,[6],83.4%
same,remaining activity at 10 µM,[7],83.8%
same,remaining activity at 10 µM,[8],84%
same,remaining activity at 10 µM,[9],84.2%
same,remaining activity at 10 µM,[10],90.1%
same,remaining activity at 10 µM,[11],90.2%
same,remaining activity at 10 µM,[12],90.5%
same,remaining activity at 10 µM,[13],92.7%
same,remaining activity at 10 µM,[14],93.8%
same,remaining activity at 10 µM,[15],94.7%
same,remaining activity at 10 µM,[16],95.4%
same,remaining activity at 10 µM,[17],95.4%
same,remaining activity at 10 µM,[18],95.5%
same,remaining activity at 10 µM,[19],97.8%
same,remaining activity at 10 µM,[20],98.3%
same,remaining activity at 10 µM,[21],98.4%
same,remaining activity at 10 µM,[22],98.7%
same,remaining activity at 10 µM,[23],98.7%
same,remaining activity at 10 µM,[24],100%
same,remaining activity at 10 µM,[25],102%
same,remaining activity at 10 µM,[26],103%
same,remaining activity at 10 µM,[27],105%
same,remaining activity at 10 µM,[28],108%
same,remaining activity at 10 µM,[29],115%
same,remaining activity at 10 µM,[30],116%
same,remaining activity at 10 µM,[31],117%
same,remaining activity at 10 µM,[32],119%
same,remaining activity at 10 µM,[33],125%
same,remaining activity at 10 µM,[34],128%
same,remaining activity at 10 µM,[35],128%
same,remaining activity at 10 µM,[36],129%
same,remaining activity at 10 µM,[37],129%
same,remaining activity at 10 µM,[38],174%
same,remaining activity at 10 µM,[39],195%
